# Results as given in patent publication US20200165194A1, “ADDITIVE COMPOSITION FOR CULTURE MEDIUM, ADDITIVE COMPOUND FOR CULTURE MEDIUM, AND METHOD FOR CULTURE OF CELLS OR TISSUE USING SAME” (NISSAN CHEMICAL CORPORATION, priority 2017, published 2020).
# Tests used:
# [1] = test system: SKOV3 cells (human ovarian cancer-derived cell line); experiment: Cell proliferation activity in three-dimensional medium FCeM, ATP assay (Experimental Example 1); format: cell-based; conditions: SKOV3, 3D medium FCeM, compound 5 μM, 4 days; DMSO control = 100%; average of two tests
# Method: A cell proliferation promoting effect when the compound to be used in the present invention was added to a three-dimensional medium was studied. Specifically, precultured (adhesion cultured) SKOV3 cells (human ovarian cancer-derived cell line) were recovered and suspended in a three-dimensional cell culture medium (“FCeM (registered trade mark)” (Nissan chemical corporation)) to prepare a cell suspension. […] The cell suspension seeded in the plate was stood overnight at 37° C., 5% CO2. Then, a DMSO diluted solution (4.44 μL) of the compound to be used in the present invention was added at a final concentration of 5 μM (or two steps of […] and 10 μM) (no stirring after addition). After addition of each compound, the mixtures were stood for 4 days at 37° C., 5% CO2. […] The luminescence intensity (RLU value) was measured by FlexStation3 (manufactured by Molecular Devices), and cell proliferation was evaluated.
# The proliferation rate was calculated based on the control (cells added with DMSO without containing the compound to be used in the present invention) as the standard (100%). The values shown in the tables are average values of the results of two tests.
# [2] = test system: Bone marrow-derived human mesenchymal stem cells (BM-hMSC); experiment: Cells cultured by hanging drop method, ATP assay (Experimental Example 12); format: cell-based
# Method: (§1) Human epithelial-like cell cancer-derived cell line A431 (manufactured by ATCC) was cultured using 10% FBS and 1% MEM non-essential amino acid solution (MEM NEAA, manufactured by Wako Pure Chemical Industries, Ltd.)-containing EMEM (manufactured by Wako Pure Chemical Industries, Ltd.)). In addition, bone marrow-derived human mesenchymal stem cells (BM-hMSC, manufactured by PromoCell) were cultured using a mesenchymal stem cell proliferation medium (manufactured by PromoCell). Each of the above-mentioned cells in the logarithmic growth phase was washed with PBS, a 0.25 w/v % trypsin-1 mmol/L EDTA (ethylenediaminetetraacetic acid) solution (manufactured by Wako Pure Chemical Industries, Ltd.) was added, and the cells were detached by incubating at 37° C. for 3 min. Each medium was added, the mixture was centrifuged, and the supernatant was removed.
# (§2) The cell suspension was seeded by 10 μL in 15 drops on the back surface of the lid of a 3.5 cm dish (manufactured by Falcon, #351008) to form droplets. At this time, as a control, a medium supplemented with DMSO (final concentration of DMSO: 0.05%) was seeded by 10 μL in 15 drops. The lid was returned to a 3.5 cm dish added with 2 mL of PBS, and cultured for 2 days in an incubator at 37° C., 5% CO2. The cultured droplets were collected in a 1.5 mL tube, and the medium was added to a final volume of 150 μL.
# [3] = test system: human epithelial-like cell cancer-derived cell line A431; experiment: as above; format: cell-based
# Method: as §1, §2
# hiPS cell line 253G1 = experiment: Human pluripotent stem cell (hiPS cell), EZSPHERE plate, ATP assay (Experimental Example 13); format: cell-based; conditions: for relative value (%): hiPS 253G1, EZSPHERE plate, 5 μM, 3 days, RLU of DMSO addition = 100%; for proliferation activity (in words): human pluripotent stem cells under three-dimensional conditions
# Method: hiPS cell line 253G1 (purchased from RIKEN) was cultured on a dish coated with vitronectin VTN-N (manufactured by Thermo Fisher Scientific) using mTeSR1 (registered trade mark) medium (manufactured by STEMCELL Technologies). The above-mentioned cells in the proliferation phase were washed with PBS (manufactured by Fujifilm Corporation Wako Pure Chemical Industries, Ltd.), TrypLE Select (registered trade mark) (manufactured by Thermo Fisher Scientific) was added and the mixture was incubated at 37° C. for 3 min to remove the detaching solution. The medium was added and the cells were detached by pipetting. Thereafter, the supernatant was removed by centrifugation.
# The aforementioned cells were suspended in a medium containing 10 μM Y-27632 (manufactured by Fujifilm Corporation Wako Pure Chemical Industries, Ltd.) and seeded in a 96-well EZSPHERE plate (manufactured by AGC TECHNO GLASS CO., LTD., #4860-900) at a cell concentration of 10000 cells/200 μL/well. […] The amount of each compound solution to be added was 2 μL/well. As a control, a DMSO solution dissolved in a medium was added (DMSO final concentration 0.05%). The medium was exchanged by half the volume every day, and each compound solution was also added to make the compound concentration constant.
# [4] = test system: Human umbilical vein endothelial cells; experiment: Vascular endothelial cell, 3D culture, ATP assay (Experimental Example 14); format: cell-based
# Method: Human umbilical vein endothelial cells (manufactured by PromoCell) were precultured in Endothelial Cell proliferation Medium (manufactured by PromoCell) medium (single layer culture). The above-mentioned cells in the logarithmic growth phase were washed with PBS, DetachKit (manufactured by PromoCell) was added, and adherent cells were detached by incubating at 37° C. for 3 min. The medium was added and the mixture was centrifuged and resuspended in the same medium.
# The aforementioned cells were suspended in respective deacylated gellan gum-containing or not containing media (deacylated gellan gum concentration was 0.015 w/v %), and seeded in a 96 well low attachment U-bottom plate (manufactured by Corning, #4520, deacylated gellan gum-free medium), or a low attachment flat bottom plate (manufactured by Corning, #3474, deacylated gellan gum-containing medium) at a cell concentration of 700-2000 cells/90 μL/well (all 3D culture). […] The amount of each compound solution to be added was 10 μL/well. As a control, a DMSO solution dissolved in a medium was added (DMSO final concentration 0.1%).
# [5] = test system: Cercopithecus aethiops kidney epithelium-derived cell line Vero; experiment: Animal cell lines, 3D culture, ATP assay (Experimental Example 15); format: cell-based; conditions: 4 days
# Text: (§3) Various animal cell lines were precultured (single layer culture) as follows in respective media. Chinese hamster ovary-derived cell line CHO-K1 (manufactured by DS PHARMA BIO MEDICAL, 10% fetal bovine serum (FBS, manufactured by Corning)-containing Ham's F-12 medium (manufactured by Fujifilm Wako Pure Chemical Corporation)), Cercopithecus aethiops kidney epithelium-derived cell line Vero (purchased from JCRB cell bank, 5% FBS-containing Medium 199 medium (manufactured by Life Technologies)). The above-mentioned cells in the logarithmic growth phase were washed with PBS, a 0.25 w/v % trypsin-1 mmol/L EDTA (ethylenediaminetetraacetic acid) solution (manufactured by Fujifilm Wako Pure Chemical Corporation) was added, and adherent cells were detached by incubating at 37° C. for 3 min. Each medium was added and the mixture was centrifuged and resuspended in the same medium.
# (§4) The aforementioned various animal cells were suspended in respective deacylated gellan gum-containing or not containing media (deacylated gellan gum concentration was 0.02 w/v % in Ham's F-12 medium, 0.015 w/v % in Medium 199 medium), and seeded in a 96 well low attachment U-bottom plate (manufactured by Corning, #4520, deacylated gellan gum-free medium), or a low attachment flat bottom plate (manufactured by Corning, #3474, deacylated gellan gum-containing medium) at a cell concentration of 700-2000 cells/90 μL/well (all 3D culture). […] The amount of each compound solution to be added was […]. As a control, a DMSO solution dissolved in a medium was added (DMSO final concentration 0.1%). […] When compared with the compound non-addition (control), one showing a value of not more than 119% as -, one showing a value of not less than 120% as ◯, and one showing a value of not less than 150% as ⊚ are shown in the twenty-third table and the twenty-fourth table.
# [6] = test system: Chinese hamster ovary-derived cell line CHO-K1; experiment: as above; format: cell-based; conditions: CHO-K1; low attachment flat bottom plate (deacylated gellan gum-containing medium); 5 μM; 4 days
# Text: as §3, §4
# plural animal cell lines = experiment: Animal cell lines, summary over the cell lines (Experimental Example 15); format: cell-based; conditions: animal cell lines under three-dimensional conditions
# Text: as §3, §4
# [7] = test system: human ovarian cancer cell line SKOV3; experiment: Action on SKOV3 cell-2: 3D (deacylated gellan gum) and 2D culture, EGF medium, ATP assay (Experimental Example 3); conditions: for relative value of RLU (number of viable cells): 4 days, compound non-addition = 100%
# Method: According to the method of patent document 1 (WO 2014/017513), a composition of McCoy's 5a medium (manufactured by Sigma-Aldrich) containing 0.015% (w/v) deacylated gellan gum (KELCOGEL CG-LA, manufactured by Sansho Co., Ltd.) and 15% (v/v) FBS, 30 ng/mL human EGF (manufactured by PEPROTECH) was prepared using FCeM-series Preparation Kit (manufactured by Wako Pure Chemical Industries, Ltd.). In a single layer culture, a non-addition medium composition not containing deacylated gellan gum was prepared. Then, human ovarian cancer cell line SKOV3 (manufactured by DS PHARMA BIO MEDICAL) was suspended in the above-mentioned medium composition added with deacylated gellan gum, and dispensed into the wells of a 384 well flat bottom Ultr-low Attachment surface microplate (manufactured by Corning Incorporated, #3827) at 1000 cells/36 μL/well (three-dimensional culture (3D)). In a single layer culture (2D), human ovarian cancer cell line SKOV3 was suspended in the above-mentioned medium composition not containing deacylated gellan gum, and dispensed into the wells of a 384 well flat bottom microplate (manufactured by Corning Incorporated, #3712) at 400 cells/36 μL per well. After dispensing, the compound to be used in the present invention dissolved in dimethyl sulfoxide (DMSO) was added by 4 μL each at a final concentration of 0, 1, 5, 10, 20 μM, and continuously cultured for 4 days. Each plate was cultured in a standing state in a CO2 incubator (37° C., 5% CO2) for 4 days. An ATP reagent (40 μL) (CellTiter-Glo (registered trade mark) Luminescent Cell Viability Assay, manufactured by Promega) was added to the culture medium on day 4, and the mixture was stirred by a plateshaker (manufactured by AS ONE Corporation, Micro plate mixer NS-P) at room temperature for 15 min. The luminescence intensity (RLU value) was measured by EnSpire (manufactured by Perkin Elmer) and the luminescence value of the medium alone was subtracted to measure the number of viable cells.
compound,measurement,setting,value
CCC(=NNC(=O)CNc1ccccc1)c1ccc(O)c(C)c1O [k-1:H-1],proliferation rate (%),[1],233.26%
same,cell number (relative value),"[2]; BM-hMSC, hanging drop, 5 μM, 2 days, control = 100%",186%
same,cell number (in words),"[2]; bone marrow-derived human mesenchymal stem cells, hanging drop method",showed an effect of increasing the number
same,cell number (in words),"[3]; A431 cell line, three-dimensional cell culture by the hanging drop method",showed an effect of increasing the number
same,cell number (relative value),"[3]; A431 cell, hanging drop, 5 μM, 2 days, control = 100%",252%
same,relative value (%),hiPS cell line 253G1,166%
same,proliferation activity (in words),hiPS cell line 253G1,promoted proliferation activity in human pluripotent stem cells
same,relative value of RLU (number of viable cells),"[4]; HUVEC, low attachment U-bottom plate, 5 μM, 4 days, no-addition = 100%",820%
same,proliferation activity (in words),[4]; human umbilical vein endothelial cells under three-dimensional conditions,promoted proliferation activity in human umbilical vein endothelial cells
same,"number of viable cells (RLU), relative value to control (100%)","[5]; low attachment U-bottom plate, 5 μM",⊙
same,"number of viable cells (RLU), relative value to control (100%)","[5]; low attachment U-bottom plate, 10 μM",⊙
same,"number of viable cells (RLU), relative value to control (100%)","[5]; low attachment flat bottom plate (deacylated gellan gum-containing medium), 5 μM",⊙
same,"number of viable cells (RLU), relative value to control (100%)","[5]; low attachment flat bottom plate (deacylated gellan gum-containing medium), 10 μM",⊙
same,"number of viable cells (RLU), relative value to control (100%)",[6],◯ (one showing a value of not less than 120% as ◯)
same,proliferation activity (in words),plural animal cell lines,promoted proliferation activity in plural animal cell lines
CCC(=NNC(=O)NC(C)c1cccc(O)c1)c1ccc(O)c(C)c1O (stereo not drawn) [k-1:I-10],relative value (%),hiPS cell line 253G1,194%
same,proliferation activity (in words),hiPS cell line 253G1,promoted proliferation activity in human pluripotent stem cells
same,relative value of RLU (number of viable cells),"[7]; 2D single layer culture, 1 μM",99%
same,relative value of RLU (number of viable cells),"[7]; 2D single layer culture, 5 μM",98%
same,relative value of RLU (number of viable cells),"[7]; 2D single layer culture, 10 μM",99%
same,relative value of RLU (number of viable cells),"[7]; 2D single layer culture, 20 μM",100%
same,relative value of RLU (number of viable cells),"[7]; 3D culture (deacylated gellan gum), 1 μM",100%
same,relative value of RLU (number of viable cells),"[7]; 3D culture (deacylated gellan gum), 5 μM",135%
same,relative value of RLU (number of viable cells),"[7]; 3D culture (deacylated gellan gum), 10 μM",181%
same,relative value of RLU (number of viable cells),"[7]; 3D culture (deacylated gellan gum), 20 μM",197%
same,cell proliferation promoting effect (in words),[7]; single layer culture (2D) of SKOV3 cells,a favorable cell proliferation promoting effect was not observed
same,cell proliferation promoting effect (in words),[7]; three-dimensional culture (3D) of SKOV3 cells,exhibited cell proliferation promoting effect at a wide concentration range
